Drawing on US7378446B2, “Compound having anti-HCV activity and process for producing the same” (Chugai Seiyaku Kabushiki Kaisha, priority 2003, dated 2008), this text covers IC50 and CC50 for 30 compounds.

By IC50 is commonly meant the concentration that inhibits the measured activity by half. In general, CC50 refers to the concentration at which the toxic effect on the cells reaches its halfway point.

The test system of series [1] is Firefly luciferase HCV replicon cells (3-1). Put plainly: Replicon assay (firefly luciferase HCV replicon). Type of series: cell-based. Particulars: Hepatitis C virus, 72 h; Huh7-derived luciferase HCV replicon cells, 3 days culture with compound, Steady-Glo luminescence. Here is the method: (§1) A construct was prepared in which a luciferase gene derived from firefly was introduced as a reporter gene in HCV-RNA to assay the number of copies of HCV-RNA. The luciferase gene was introduced in the form of fusing with neomycin-resistance gene directly below the IRES (Internal Ribosome Entry Site) of the HCV gene in accordance with the method of Krieger, et al. (J. Virol. 75:4614). After synthesizing this RNA in vitro, it was introduced into Huh7 cell by electroporation and isolated as G418-resistant clone. Firefly luciferase HCV replicon cells (3-1) were suspended in Dulbecco's MEM (Gibco cat. no. 10569-010) containing 5% fetal bovine serum (Hyclone cat. no. SH30071.03), inoculated into the wells of a 96-well plate at 5000 cells/well and then cultured overnight at 37° C. and 5% CO2. Approximately 20 hours later, the diluted test compound was added at 10 μl per well followed by culturing for another 3 days. Two series of assay plates were prepared, and the assay was carried out using a white plate for one series and a clear plate for the other series. Following completion of culturing, the white plate was used for the Steady-Glo Luciferase Assay System (Promega cat. no. E2520). Namely, after adding 100 μl of reagent per well, mixing by a pipette 3 to 4 times and then allowing to stand for 5 minutes, luminescence was measured with the 1450 MicroBeta TRILUX (Wallac). Values obtained in the absence of cell addition were used as background values and subtracted from all values to calculate the IC50 (50% inhibitory concentration) of the drug based on a value of 0% inhibition for the value in the absence of addition of test compound.
In general terms: A replicon is a self-replicating genome or part of one, used to study replication in cells.

Another series is described as follows: in vitro. The format is cell-based. Particulars: human; replicon cells, 3 days culture with compound, Cell Counting Kit 8, absorbance 450 nm; read-out: Cytotoxicity CC50. Here is the method: as §1
The Cell Counting Kit 8 (Dojindo cat. no. CK04) was used to determine the cytotoxicity. Namely, 10 μl of Cell Counting Kit 8 were added to a clear plate and incubated for 30 to 60 minutes at 37° C. Absorbance at a wavelength of 450 nm and a control wavelength of 630 nm was measured with a 96-well plate reader. Values in the absence of cell addition were used as background values and subtracted from all values to calculate the CC50 (50% cell inhibitory concentration) of the drug based on a value of 0% inhibition for the value in the absence of addition of drug.

Consider `CCCCCCCC(=O)CCCCCC/C=C/[C@H](C(=O)N[C@@H](Cc1ccc(OCCCN)cc1)C(=O)O)[C@@](O)(CC(=O)O)C(=O)O` [Compound 82], for which the IC50 in series [1] turned out to be 0.039 µM. The CC50 in the series “in vitro” was greater than 1 µM.
For `CCCCCCCC(=O)CCCCCC/C=C/[C@H](C(=O)N[C@@H](Cc1ccc(OC2CCN(C)CC2)cc1)C(=O)O)[C@@](O)(CC(=O)O)C(=O)O` [Compound 83], the IC50 in series [1] is 0.108 µM. In addition, in the series “in vitro”, the CC50 is greater than 1 µM.
The like results for `CCCCCCCC(=O)CCCCCC/C=C/[C@H](C(=O)N[C@@H](Cc1ccc(OCCCN(C)C)cc1)C(=O)O)[C@@](O)(CC(=O)O)C(=O)O` [Compound 84] were, in that order, 0.043 µM and greater than 1 µM.
For `CCCCCCCC(=O)CCCCCC/C=C/[C@H](C(=O)N[C@@H](Cc1ccc(OCc2cccnc2)cc1)C(=O)O)[C@@](O)(CC(=O)O)C(=O)O` [Compound 85], the IC50 in series [1] was found to be 0.001 µM. Further, in “in vitro”, the CC50 is greater than 1 µM.
The like results for `CCCCCCCC(=O)CCCCCC/C=C/[C@H](C(=O)N[C@@H](Cc1ccc(OCCN2CCOCC2)cc1)C(=O)O)[C@@](O)(CC(=O)O)C(=O)O` [Compound 86] were, in that order, 0.007 µM and greater than 1 µM.
With `CCCCCCCC(=O)CCCCCC/C=C/[C@H](C(=O)N[C@@H](Cc1ccc(OCCN2CCNCC2)cc1)C(=O)O)[C@@](O)(CC(=O)O)C(=O)O` [Compound 87], the 50% inhibitory concentration (IC50) in series [1] stood at 0.038 µM. Besides, in “in vitro”, the 50% cytotoxic concentration (CC50) was greater than 1 µM.
The corresponding values for `CCCCCCCC(=O)CCCCCC/C=C/[C@H](C(=O)N[C@@H](Cc1ccc(OCCCNCc2cccnc2)cc1)C(=O)O)[C@@](O)(CC(=O)O)C(=O)O` [Compound 88] are 0.018 µM and greater than 1 µM.
The like results for `CCCCCCCC(=O)CCCCCC/C=C/[C@H](C(=O)N[C@@H](Cc1ccc(OCCCN2CCN(C)CC2)cc1)C(=O)O)[C@@](O)(CC(=O)O)C(=O)O` [Compound 89] were, in that order, 0.029 µM and greater than 1 µM.
With `CCCCCCCC(=O)CCCCCC/C=C/[C@H](C(=O)N[C@@H](Cc1ccc(N=[N+]=[N-])cc1)C(=O)O)[C@@](O)(CC(=O)O)C(=O)O` [Compound 90], in series [1], the IC50 came to 0.006 µM. In addition, the CC50 in the series “in vitro” was greater than 1 µM.
On to `CCCCCCCC(=O)CCCCCC/C=C/[C@H](C(=O)N[C@@H](Cc1ccc(CNC(=O)OCC2c3ccccc3-c3ccccc32)cc1)C(=O)O)[C@@](O)(CC(=O)O)C(=O)O` [Compound 91], for which the IC50 in series [1] came out at 0.008 µM. In addition, the CC50 in the series “in vitro” is greater than 1 µM.
The corresponding values for `CCCCCCCC(=O)CCCCCC/C=C/[C@H](C(=O)N[C@@H](Cc1ccc(NS(C)(=O)=O)cc1)C(=O)O)[C@@](O)(CC(=O)O)C(=O)O` [Compound 92] are 0.002 µM and greater than 1 µM.
Consider `CCCCCCCC(=O)CCCCCC/C=C/[C@H](C(=O)N[C@@H](Cc1ccc(NC(C)=O)cc1)C(=O)O)[C@@](O)(CC(=O)O)C(=O)O` [Compound 93], for which the IC50 in series [1] turned out to be 0.012 µM. Further, in “in vitro”, the cytotoxic concentration (CC50) is greater than 1 µM.
The like results for `CCCCCCCC(=O)CCCCCC/C=C/[C@H](C(=O)N[C@@H](Cc1ccc(CN)cc1)C(=O)O)[C@@](O)(CC(=O)O)C(=O)O` [Compound 94] were, in that order, 0.28 µM and greater than 1 µM.
In the case of `CCCCCCCC(=O)CCCCCC/C=C/[C@H](C(=O)N[C@@H](Cc1ccc(NC(=N)N)cc1)C(=O)O)[C@@](O)(CC(=O)O)C(=O)O` [Compound 95], the half-maximal inhibitory concentration (IC50) in series [1] was found to be 0.395 µM. For the same compound, in “in vitro”, the CC50 was greater than 1 µM.
The corresponding values for `CCCCCCCC(=O)CCCCCC/C=C/[C@H](C(=O)N[C@@H](Cc1ccc(-n2cc(C(=O)OCC)nn2)cc1)C(=O)O)[C@@](O)(CC(=O)O)C(=O)O` [Compound 96] are 0.009 µM and greater than 1 µM.
The corresponding values for `CCCCCCCC(=O)CCCCCC/C=C/[C@H](C(=O)N[C@@H](Cc1cccnc1)C(=O)O)[C@@](O)(CC(=O)O)C(=O)O` [Compound 97] are 0.302 µM and greater than 1 µM.
Take `CC(C)CCOc1ccc(C[C@H](NC(=O)[C@@H](/C=C/CCCCCCC(=O)CCCCCCF)[C@@](O)(CC(=O)O)C(=O)O)C(=O)O)cc1` [Compound 98]: in series [1], the IC50 amounted to 0.021 µM. In the series “in vitro”, the CC50 is greater than 1 µM.
Turning to `COCCCCCCC(=O)CCCCCC/C=C/[C@H](C(=O)N[C@@H](Cc1ccc(OCCC(C)C)cc1)C(=O)O)[C@@](O)(CC(=O)O)C(=O)O` [Compound 99], the IC50 in series [1] is 0.056 µM. For the same compound, the CC50 in the series “in vitro” was greater than 1 µM.
As to `CCCCCCCCCC(=O)CCCC/C=C/[C@H](C(=O)N[C@@H](Cc1ccc(-c2ccccc2)cc1)C(=O)O)[C@@](O)(CC(=O)O)C(=O)O` [Compound 100], the IC50 in series [1] came out at 0.092 µM. Moreover, in the series “in vitro”, the CC50 was greater than 1 µM.
In the case of `CCCCCCCCCC(=O)CCCC/C=C/[C@H](C(=O)N[C@@H](Cc1ccc(Oc2ccccc2)cc1)C(=O)O)[C@@](O)(CC(=O)O)C(=O)O` [Compound 101], in series [1], the IC50 stood at 0.046 µM. Besides, the CC50 in “in vitro” was greater than 1 µM.
The like results for `CCCCCCC(=O)CCCCCC/C=C/[C@H](C(=O)N[C@@H](Cc1ccc(-c2ccccc2)cc1)C(=O)O)[C@@](O)(CC(=O)O)C(=O)O` [Compound 102] were, in that order, 0.005 µM and greater than 1 µM.
With `CCCCCCC(=O)CCCCCC/C=C/[C@H](C(=O)N[C@@H](Cc1ccc(Oc2ccccc2)cc1)C(=O)O)[C@@](O)(CC(=O)O)C(=O)O` [Compound 103], the IC50 in series [1] was found to be 0.011 µM. The CC50 in the series “in vitro” was greater than 1 µM.
As for `CCCC#CCOc1ccc(C[C@H](NC(=O)[C@@H](/C=C/CCCCCCC(=O)CCCCCCC)[C@@](O)(CC(=O)O)C(=O)O)C(=O)O)cc1` [Compound 104], the IC50 in series [1] came to 0.001 µM. Moreover, the CC50 in the series “in vitro” is greater than 1 µM.
Consider `C#CCOc1ccc(C[C@H](NC(=O)[C@@H](/C=C/CCCCCCC(=O)CCCCCCC)[C@@](O)(CC(=O)O)C(=O)O)C(=O)O)cc1` [Compound 105], for which, in series [1], the concentration for half-maximal inhibition (IC50) was found to be 0.003 µM. Moreover, the CC50 in “in vitro” was greater than 1 µM.
The corresponding values for `C#CCCCOc1ccc(C[C@H](NC(=O)[C@@H](/C=C/CCCCCCC(=O)CCCCCCC)[C@@](O)(CC(=O)O)C(=O)O)C(=O)O)cc1` [Compound 106] are 0.001 µM and greater than 1 µM.
The like results for `CC#CCCOc1ccc(C[C@H](NC(=O)[C@@H](/C=C/CCCCCCC(=O)CCCCCCC)[C@@](O)(CC(=O)O)C(=O)O)C(=O)O)cc1` [Compound 107] were, in that order, 0.001 µM and greater than 1 µM.
The corresponding values for `CCCCCCCC(=O)CCCCCC/C=C/[C@H](C(=O)N[C@@H](Cc1ccc(OCC#CCN(CC)CC)cc1)C(=O)O)[C@@](O)(CC(=O)O)C(=O)O` [Compound 108] are 0.003 µM and greater than 1 µM.
For `CCC#CCOc1ccc(C[C@H](NC(=O)[C@@H](/C=C/CCCCCCC(=O)CCCCCCC)[C@@](O)(CC(=O)O)C(=O)O)C(=O)O)cc1` [Compound 109], the half-inhibitory concentration (IC50) in series [1] came to 0.002 µM. For the same compound, the CC50 in “in vitro” is greater than 1 µM.
The like results for `CCCCCCCC#CCOc1ccc(C[C@H](NC(=O)[C@@H](/C=C/CCCCCCC(=O)CCCCCCC)[C@@](O)(CC(=O)O)C(=O)O)C(=O)O)cc1` [Compound 110] were, in that order, 0.005 µM and greater than 1 µM.
The like results for `CCCCCCCC(=O)CCCCCC/C=C/[C@H](C(=O)N[C@@H](Cc1ccc(OCC#CC#CC(C)(C)C)cc1)C(=O)O)[C@@](O)(CC(=O)O)C(=O)O` [Compound 111] were, in that order, 0.006 µM and greater than 1 µM.
